Test results from patent publication US12344600B2, “c-Myc mRNA translation modulators and uses thereof in the treatment of cancer” (Anima Biotech Inc., priority 2022, dated 2025).

System: c-Myc
Assay: c-Myc immunofluorescence assay
Format: cell-based, human
Conditions: A549 cells, 24 hours, anti-c-Myc immunofluorescence
How it was run: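 A549 NSCLC cells grown 48 h, then treated 24 h with increasing compound concentrations; fixed in 4% paraformaldehyde, stained with anti-c-Myc antibody plus fluorescent secondary and DAPI. Per-cell c-Myc fluorescence quantified by high-content imaging at 20×; dose-response fitted by logistic regression to give EC50.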

| Compound | Myc Efficacy (−LogEC50) |
| --- | --- |
| COc1ccc(-c2noc(N3CCC(C(=O)NCC4CCN(Cc5cccnc5)C4)CC3)n2)cc1 (centres unmarked) [Compound 356, 1-(3-(4-methoxyphenyl)-1,2,4-oxadiazol-5-yl)-N-((1-(pyridin-3-ylmethyl)pyrrolidin-3-yl)methyl)piperidine-4-carboxamide] | ++ (++ ≥5 and <6) |
| COc1ccc(-c2noc(N3CCC(C(=O)NCC4CCN(Cc5cccc(O)c5)C4)CC3)n2)cc1 (centres unmarked) [Compound 390, N-((1-(3-hydroxybenzyl)pyrrolidin-3-yl)methyl)-1-(3-(4-methoxyphenyl)-1,2,4-oxadiazol-5-yl)piperidine-4-carboxamide] | ++ (++ ≥5 and <6) |
| COc1ccc(-c2noc(N3CCC(C(=O)NCC4CCN(Cc5ccc(C)nc5)C4)CC3)n2)cc1 (centres unmarked) [Compound 351, 1-(3-(4-methoxyphenyl)-1,2,4-oxadiazol-5-yl)-N-((1-((6-methylpyridin-3-yl)methyl)pyrrolidin-3-yl)methyl)piperidine-4-carboxamide] | ++ (++ ≥5 and <6) |
| CC1CCCN(CCCNC(=O)C2CCN(c3nc(-c4ccc(Cl)cc4)no3)CC2)C1 (centres unmarked) [Compound 132, 1-(3-(4-chlorophenyl)-1,2,4-oxadiazol-5-yl)-N-(3-(3-methylpiperidin-1-yl)propyl)piperidine-4-carboxamide] | + (+ >3 and <5) |
| COc1ccc(-c2noc(N3CCC(C(=O)NCC4CCN(Cc5ccns5)C4)CC3)n2)cc1 (centres unmarked) [Compound 352, N-((1-(isothiazol-5-ylmethyl)pyrrolidin-3-yl)methyl)-1-(3-(4-methoxyphenyl)-1,2,4-oxadiazol-5-yl)piperidine-4-carboxamide] | ++ (++ ≥5 and <6) |
| COc1ccc(-c2noc(N3CCC(C(=O)NCc4cccc(OC(C)C)c4)CC3)n2)cc1 [Compound 300, N-(3-isopropoxybenzyl)-1-(3-(4-methoxyphenyl)-1,2,4-oxadiazol-5-yl)piperidine-4-carboxamide] | ++ (++ ≥5 and <6) |
| COc1ccc(-c2coc(N3CCC(C(=O)N4CCOCC4)CC3)n2)cc1 [Compound 203, (1-(4-(4-methoxyphenyl)oxazol-2-yl)piperidin-4-yl)(morpholino)methanone] | + (+ >3 and <5) |
| COc1ccc(-c2noc(N3CCC(C(=O)NC4(C5CCCCC5)CC4)CC3)n2)cc1 [Compound 292, N-(1-cyclohexylcyclopropyl)-1-(3-(4-methoxyphenyl)-1,2,4-oxadiazol-5-yl)piperidine-4-carboxamide] | + (+ >3 and <5) |
| COc1ccc(-c2noc(N3CCC(C(=O)NC4(c5nc(C)cs5)CCC4)CC3)n2)cc1 [Compound 298, 1-(3-(4-methoxyphenyl)-1,2,4-oxadiazol-5-yl)-N-(1-(4-methylthiazol-2-yl)cyclobutyl)piperidine-4-carboxamide] | + (+ >3 and <5) |
| COc1ccc(-c2noc(N3CCC(C(=O)NC[C@H]4CCN(CC5CCN(C)CC5)C4)CC3)n2)cc1 [Compound 433, (R)-1-(3-(4-methoxyphenyl)-1,2,4-oxadiazol-5-yl)-N-((1-((1-methylpiperidin-4-yl)methyl)pyrrolidin-3-yl)methyl)piperidine-4-carboxamide] | + (+ >3 and <5) |
| COc1ccc(-c2noc(N3CCC(C(=O)NCc4cccs4)CC3)n2)cc1 [Compound 120, 1-(3-(4-methoxyphenyl)-1,2,4-oxadiazol-5-yl)-N-(thiophen-2-ylmethyl)piperidine-4-carboxamide] | + (+ >3 and <5) |
| COc1ccc(-c2noc(N3CCN(C(=O)c4cccc(CN5CCCCC5)c4)CC3)n2)cc1 [Compound 236, (4-(3-(4-methoxyphenyl)-1,2,4-oxadiazol-5-yl)piperazin-1-yl)(3-(piperidin-1-ylmethyl)phenyl)methanone] | ++ (++ ≥5 and <6) |
| COc1ccc(-c2noc(N3CCC(C(=O)N4CCCC4)CC3)n2)cc1 [Compound 109, (1-(3-(4-methoxyphenyl)-1,2,4-oxadiazol-5-yl)piperidin-4-yl)(pyrrolidin-1-yl)methanone] | + (+ >3 and <5) |
| Cc1ccc(CN2CC(CNC(=O)C3CCN(c4nc(-c5ccc(C#N)cc5)no4)CC3)CC2=O)cc1 (centres unmarked) [Compound 267, 1-(3-(4-cyanophenyl)-1,2,4-oxadiazol-5-yl)-N-((1-(4-methylbenzyl)-5-oxopyrrolidin-3-yl)methyl)piperidine-4-carboxamide] | ++ (++ ≥5 and <6) |
| COc1ccc(-c2noc(CCC(=O)NCCCN3CCC(Cc4ccccc4)CC3)n2)cc1 [Compound 151, N-(3-(4-benzylpiperidin-1-yl)propyl)-3-(3-(4-methoxyphenyl)-1,2,4-oxadiazol-5-yl)propanamide] | ++ (++ ≥5 and <6) |
| CC[C@H](C)NC(=O)C1CCN(c2nc(-c3ccc(OC)cc3)no2)CC1 [Compound 279, (S)-N-(sec-butyl)-1-(3-(4-methoxyphenyl)-1,2,4-oxadiazol-5-yl)piperidine-4-carboxamide] | + (+ >3 and <5) |

| Compound | Myc Efficacy (−LogEC50) |
| --- | --- |
| COc1ccc(-c2noc(N3CCC(C(=O)NC[C@H]4CCN(C[C@H]5CCCN(C)C5)C4)CC3)n2)cc1 [Compound 465, 1-(3-(4-methoxyphenyl)-1,2,4-oxadiazol-5-yl)-N-(((R)-1-(((S)-1-methylpiperidin-3-yl)methyl)pyrrolidin-3-yl)methyl)piperidine-4-carboxamide] | + (+ >3 and <5) |
| COc1ccc(-c2noc(N3CCC(C(=O)NCC4CCN(Cc5cccc(C)c5)C4)CC3)n2)cc1 (centres unmarked) [Compound 349, 1-(3-(4-methoxyphenyl)-1,2,4-oxadiazol-5-yl)-N-((1-(3-methylbenzyl)pyrrolidin-3-yl)methyl)piperidine-4-carboxamide] | ++ (++ ≥5 and <6) |
| COc1ccc(-c2noc(N3CCC(C(=O)NCCc4ccccc4)CC3)n2)cc1 [Compound 128, 1-(3-(4-methoxyphenyl)-1,2,4-oxadiazol-5-yl)-N-phenethylpiperidine-4-carboxamide] | + (+ >3 and <5) |
| COc1ccc(-c2noc(N3CCC(C(=O)NCCc4cccc(C(F)(F)F)n4)CC3)n2)cc1 [Compound 309, 1-(3-(4-methoxyphenyl)-1,2,4-oxadiazol-5-yl)-N-(2-(6-(trifluoromethyl)pyridin-2-yl)ethyl)piperidine-4-carboxamide] | − (− ≤3) |
| O=C(C1CCN(c2nc(-c3ccc(Cl)cc3)no2)CC1)N1CCOCC1 [Compound 166, (1-(3-(4-chlorophenyl)-1,2,4-oxadiazol-5-yl)piperidin-4-yl)(morpholino)methanone] | + (+ >3 and <5) |
| COc1ccc(-c2noc(N3CCC(C(=O)N[C@H]4CCN(Cc5ccccc5)C4)CC3)n2)cc1 [Compound 316, (S)-N-(1-benzylpyrrolidin-3-yl)-1-(3-(4-methoxyphenyl)-1,2,4-oxadiazol-5-yl)piperidine-4-carboxamide] | + (+ >3 and <5) |
| COc1ccc(-c2noc(N3CCC(C(=O)NCC4CCN(CC5CCCCO5)C4)CC3)n2)cc1 (centres unmarked) [Compound 361, 1-(3-(4-methoxyphenyl)-1,2,4-oxadiazol-5-yl)-N-((1-((tetrahydro-2H-pyran-2-yl)methyl)pyrrolidin-3-yl)methyl)piperidine-4-carboxamide] | ++ (++ ≥5 and <6) |
| COc1ccc(-c2noc(N3CCC(C(=O)NC[C@@H]4CCCC[C@H]4O)CC3)n2)cc1 [Compound 293, N-(((1S,2R)-2-hydroxycyclohexyl)methyl)-1-(3-(4-methoxyphenyl)-1,2,4-oxadiazol-5-yl)piperidine-4-carboxamide] | + (+ >3 and <5) |
| COc1ccc(-c2noc(N3CCC(C(=O)NCCc4c[nH]c5cc(C)ccc45)CC3)n2)cc1 [Compound 317, 1-(3-(4-methoxyphenyl)-1,2,4-oxadiazol-5-yl)-N-(2-(6-methyl-1H-indol-3-yl)ethyl)piperidine-4-carboxamide] | ++ (++ ≥5 and <6) |
| COc1ccc(-c2noc(N3CCN(c4nc5ccccc5[nH]4)CC3)n2)cc1 [Compound 235, 5-(4-(1H-benzo[d]imidazol-2-yl)piperazin-1-yl)-3-(4-methoxyphenyl)-1,2,4-oxadiazole] | + (+ >3 and <5) |
| COc1ccc(-c2noc(N3CCN(C(=O)C4CCCN(CC(C)C)C4)CC3)n2)cc1 (centres unmarked) [Compound 227, (1-isobutylpiperidin-3-yl)(4-(3-(4-methoxyphenyl)-1,2,4-oxadiazol-5-yl)piperazin-1-yl)methanone] | + (+ >3 and <5) |
| COc1ccc(-c2noc(N3CCC(C(=O)NCC4CCN(CC5COC5)C4)CC3)n2)cc1 (centres unmarked) [Compound 408, 1-(3-(4-methoxyphenyl)-1,2,4-oxadiazol-5-yl)-N-((1-(oxetan-3-ylmethyl)pyrrolidin-3-yl)methyl)piperidine-4-carboxamide] | + (+ >3 and <5) |
| COc1ccc(-c2noc(N3CCC(C(=O)NCC4CCN(C(C)C5CCOCC5)C4)CC3)n2)cc1 (centres unmarked) [Compound 416, 1-(3-(4-methoxyphenyl)-1,2,4-oxadiazol-5-yl)-N-((1-(1-(tetrahydro-2H-pyran-4-yl)ethyl)pyrrolidin-3-yl)methyl)piperidine-4-carboxamide] | + (+ >3 and <5) |
| C#CCCC1(CCNC(=O)N2CCN(c3nc(-c4ccc(OC)cc4)no3)CC2)N=N1 [Compound 246, N-(2-(3-(but-3-yn-1-yl)-3H-diazirin-3-yl)ethyl)-4-(3-(4-methoxyphenyl)-1,2,4-oxadiazol-5-yl)piperazine-1-carboxamide] | + (+ >3 and <5) |
| COc1ccc(-c2noc(N3CCC(C(=O)N[C@@H](CO)c4ccccc4)CC3)n2)cc1 [Compound 265, (R)-N-(2-hydroxy-1-phenylethyl)-1-(3-(4-methoxyphenyl)-1,2,4-oxadiazol-5-yl)piperidine-4-carboxamide] | + (+ >3 and <5) |
| COc1ccc(-c2noc(N3CCC(C(=O)NCCN4CCCC4(C)C)CC3)n2)cc1 [Compound 269, N-(2-(2,2-dimethylpyrrolidin-1-yl)ethyl)-1-(3-(4-methoxyphenyl)-1,2,4-oxadiazol-5-yl)piperidine-4-carboxamide] | + (+ >3 and <5) |
